From PubChem BioAssay AID2060889 (Molecular Pharmacology Branch, DTP, NCI, 2025)
Where “and” joins values, the source holds several entries; their conditions need not be identical. Equal entries are not always repeated.

Test system: LG0567-F671-PDC complex spheroids viability
Assay: Anticancer human tumor LG0567-F671-PDC patient-derived lung adenocarcinoma cell line growth inhibition [RAS]
Conditions: for viability, T/C: stronger effect = lower value
Method in brief: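 Agents were tested in combination matrices in half-log decrements from a top concentration at or near clinical Cmax (10 microM if undetermined). Targets were multi-cell spheroids of tumour lines plus HUVEC and MSC stromal cells.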
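Further: spheroids exposed to compound for seven days before readout.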
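Wherever IC50 is given: luminescence signal used as a proxy for viable cells.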

For `CCc1c2c(nc3ccc(O)cc13)-c1cc3c(c(=O)n1C2)COC(=O)[C@]3(O)CC` + CCn1c(-c2cccnc2C(C)OC)c2c3cc(ccc31)N1CCOC(CC(NC(=O)C(C(C)C)N(C)C(=O)C3(F)CCN(C(=O)C#CC(C)(C)N(C)C)CC3)C(=O)N3CCCC(N3)C(=O)OCC(C)(C)C2)C1, the IC50 (curve of first compound, second compound 0.000949 µM) was < 0.949 nM, the IC50 (curve of first compound, second compound 0.003 µM) was < 0.949 nM and the IC50 (curve of first compound, second compound 0.00949 µM) was < 0.949 nM. The IC50 (curve of first compound, second compound 0.03 µM) was < 0.949 nM, the IC50 (curve of first compound, second compound 0.0949 µM) was < 0.949 nM and the IC50 (curve of first compound, second compound 0.3 µM) was < 0.949 nM. The viability, T/C (second compound 0.000949 µM, first compound 0.000949 µM) was 13.8%, the viability, T/C (second compound 0.000949 µM, first compound 0.003 µM) was 13.3% and the viability, T/C (second compound 0.000949 µM, first compound 0.00949 µM) was 11.2%. The viability, T/C (second compound 0.000949 µM, first compound 0.03 µM) was 9.37%, the viability, T/C (second compound 0.000949 µM, first compound 0.0949 µM) was 6.34% and the viability, T/C (second compound 0.000949 µM, first compound 0.3 µM) was 3.92%. For the same compound, the viability, T/C (second compound 0.003 µM, first compound 0.000949 µM) was 15.5%, the viability, T/C (second compound 0.003 µM, first compound 0.003 µM) was 13.3% and the viability, T/C (second compound 0.003 µM, first compound 0.00949 µM) was 11.8%. For the same compound, the viability, T/C (second compound 0.003 µM, first compound 0.03 µM) was 9.3%, the viability, T/C (second compound 0.003 µM, first compound 0.0949 µM) was 6.04% and the viability, T/C (second compound 0.003 µM, first compound 0.3 µM) was 3.42%. The viability, T/C (second compound 0.00949 µM, first compound 0.000949 µM) was 13.6%, the viability, T/C (second compound 0.00949 µM, first compound 0.003 µM) was 14.2% and the viability, T/C (second compound 0.00949 µM, first compound 0.00949 µM) was 11.6%. For the same compound, the viability, T/C (second compound 0.00949 µM, first compound 0.03 µM) was 9.12%, the viability, T/C (second compound 0.00949 µM, first compound 0.0949 µM) was 6.47% and the viability, T/C (second compound 0.00949 µM, first compound 0.3 µM) was 3.47%. The viability, T/C (second compound 0.03 µM, first compound 0.000949 µM) was 12.1%, the viability, T/C (second compound 0.03 µM, first compound 0.003 µM) was 11.9% and the viability, T/C (second compound 0.03 µM, first compound 0.00949 µM) was 11.2%. The viability, T/C (second compound 0.03 µM, first compound 0.03 µM) was 7.2%, the viability, T/C (second compound 0.03 µM, first compound 0.0949 µM) was 4.9% and the viability, T/C (second compound 0.03 µM, first compound 0.3 µM) was 2.69%. The viability, T/C (second compound 0.0949 µM, first compound 0.000949 µM) was 12.8%, the viability, T/C (second compound 0.0949 µM, first compound 0.003 µM) was 9.98% and the viability, T/C (second compound 0.0949 µM, first compound 0.00949 µM) was 10.1%. The viability, T/C (second compound 0.0949 µM, first compound 0.03 µM) was 6.64%, the viability, T/C (second compound 0.0949 µM, first compound 0.0949 µM) was 4.22% and the viability, T/C (second compound 0.0949 µM, first compound 0.3 µM) was 2.51%. The viability, T/C (second compound 0.3 µM, first compound 0.000949 µM) was 10.2%, the viability, T/C (second compound 0.3 µM, first compound 0.003 µM) was 8.84% and the viability, T/C (second compound 0.3 µM, first compound 0.00949 µM) was 7.66%. For the same compound, the viability, T/C (second compound 0.3 µM, first compound 0.03 µM) was 5.32%, the viability, T/C (second compound 0.3 µM, first compound 0.0949 µM) was 3.16% and the viability, T/C (second compound 0.3 µM, first compound 0.3 µM) was 2.05%.
In the case of `CCC(CC)c1cc(NC2CCC(N)C2)n2nccc2n1` (stereo unspecified), the viability, T/C (compound 0.0316 µM) is reported as 101% [middle of 4 runs], the viability, T/C (compound 0.1 µM) is reported as 106% [middle of 4 runs] and the viability, T/C (compound 0.316 µM) is reported as 100% and 103% (2×) and 138%. The viability, T/C (compound 1 µM) was 111% and 103% (2×) and 118%, the viability, T/C (compound 3.16 µM) was 5.03% [middle of 4 runs] and the viability, T/C (compound 10 µM) was 0.67% [middle of 4 runs]. The IC50 (curve of compound) was 1.86 µM [middle of 4 runs].
With `CC(Nc1ccc2c(c1)OCCn1cc(N3C(=O)OCC3C(F)F)nc1-2)C(N)=O` (stereo unspecified) + C=CC(=O)N1CCN(c2nc(OCC3CCCN3C)nc3c(F)c(-c4nc(N)cc(C)c4C(F)(F)F)c(Cl)cc23)C(C)C1 the IC50 (curve of first compound, second compound 0.00316 µM) was < 31.6 nM, the IC50 (curve of first compound, second compound 0.01 µM) was < 31.6 nM and the IC50 (curve of first compound, second compound 0.0316 µM) was < 31.6 nM. The IC50 (curve of first compound, second compound 0.1 µM) was < 31.6 nM, the IC50 (curve of first compound, second compound 0.316 µM) was < 31.6 nM and the IC50 (curve of first compound, second compound 1 µM) was < 31.6 nM. It also gave a viability, T/C (second compound 0.00316 µM, first compound 0.0316 µM) of 15.2%, a viability, T/C (second compound 0.00316 µM, first compound 0.1 µM) of 10.8% and a viability, T/C (second compound 0.00316 µM, first compound 0.316 µM) of 10.1%. The viability, T/C (second compound 0.00316 µM, first compound 1 µM) was 7.83%, the viability, T/C (second compound 0.00316 µM, first compound 3.16 µM) was 7.01% and the viability, T/C (second compound 0.00316 µM, first compound 10 µM) was 5.88%. For the same compound, the viability, T/C (second compound 0.01 µM, first compound 0.0316 µM) was 12%, the viability, T/C (second compound 0.01 µM, first compound 0.1 µM) was 8.85% and the viability, T/C (second compound 0.01 µM, first compound 0.316 µM) was 8.39%. It also gave a viability, T/C (second compound 0.01 µM, first compound 1 µM) of 5.85%, a viability, T/C (second compound 0.01 µM, first compound 3.16 µM) of 5.99% and a viability, T/C (second compound 0.01 µM, first compound 10 µM) of 4.79%. For the same compound, the viability, T/C (second compound 0.0316 µM, first compound 0.0316 µM) was 10.2%, the viability, T/C (second compound 0.0316 µM, first compound 0.1 µM) was 9.26% and the viability, T/C (second compound 0.0316 µM, first compound 0.316 µM) was 7.97%. The viability, T/C (second compound 0.0316 µM, first compound 1 µM) was 5.73%, the viability, T/C (second compound 0.0316 µM, first compound 3.16 µM) was 5.76% and the viability, T/C (second compound 0.0316 µM, first compound 10 µM) was 4.64%. For the same compound, the viability, T/C (second compound 0.1 µM, first compound 0.0316 µM) was 13%, the viability, T/C (second compound 0.1 µM, first compound 0.1 µM) was 8.09% and the viability, T/C (second compound 0.1 µM, first compound 0.316 µM) was 6.28%. For the same compound, the viability, T/C (second compound 0.1 µM, first compound 1 µM) was 5.63%, the viability, T/C (second compound 0.1 µM, first compound 3.16 µM) was 5.99% and the viability, T/C (second compound 0.1 µM, first compound 10 µM) was 4.82%. It also gave a viability, T/C (second compound 0.316 µM, first compound 0.0316 µM) of 10.5%, a viability, T/C (second compound 0.316 µM, first compound 0.1 µM) of 8.03% and a viability, T/C (second compound 0.316 µM, first compound 0.316 µM) of 7.03%. For the same compound, the viability, T/C (second compound 0.316 µM, first compound 1 µM) was 5.34%, the viability, T/C (second compound 0.316 µM, first compound 3.16 µM) was 6.43% and the viability, T/C (second compound 0.316 µM, first compound 10 µM) was 5.3%. It also gave a viability, T/C (second compound 1 µM, first compound 0.0316 µM) of 11.4%, a viability, T/C (second compound 1 µM, first compound 0.1 µM) of 9.66% and a viability, T/C (second compound 1 µM, first compound 0.316 µM) of 6.71%. The viability, T/C (second compound 1 µM, first compound 1 µM) was 6.57%, the viability, T/C (second compound 1 µM, first compound 3.16 µM) was 7.01% and the viability, T/C (second compound 1 µM, first compound 10 µM) was 5.23%.
